# Test results from patent publication US20250205164A1, “FPR2 AGONIST CONTAINING OUTER MEMBRANE VESICLES DERIVED FROM LACTIC ACID BACTERIUM” (ASAHI GROUP HOLDINGS, LTD., priority 2022, published 2025).
# System: M2 macrophages differentiated from human monocyte-derived cells (THP-1)
# Assay: IL-10 inducing ability in M2 macrophages (Human IL-10 ELISA of culture supernatant)
# Type: cell-based
# Details: Reference Example 1; 500 ng/ml FSL-1, 5000 nM WKYMVm at preparation, final 1/50; 24 hours; n=6
# Procedure: The anti-inflammatory cytokine IL-10 inducing ability in M2 macrophages differentiated from human monocyte-derived cells (THP-1, JCRB Cell Bank) was evaluated by the following procedure, which is a modification of the method described in the literature (BMC Cancer 15:577 (2015)). […]
# After the culture, the culture supernatant was collected, and the IL-10 concentration in the supernatant was calculated using Human IL-10 DuoSet ELISA (R&D Systems). […]
# Student's t-test was used for statistical processing. […] The results of IL-10 concentration are shown as the average of the values measured in six tests. […]
# The IL-10 inducing activity of the test samples was evaluated according to the procedure described in [Reference Example 1] above. […]
# The IL-10 induction rate was calculated according to the following formula. […]
substance,measurement,value
FSL-1,IL-10 Concentration (pg/mL) Average,180.8 pg/mL
